Results on 1 compound are retold here after US20120129787A1, “Modified oligopeptides with anticancer properties and methods of obtaining them” (priority 2010, published 2012).

For one assay, the system named is HeLa cells. In words: Effect of MPs on HeLa cells: number of surviving cells versus concentration. The format is cell-based. From the text: In establishing the minimum concentration of MPs that will slow the growth of cells, a comparison was made between the number of surviving cells and the concentration of MPs in the solution.
A further assay deals with benzidine skin sarcoma. Briefly: Anti-cancer activity on benzidine skin sarcoma in Barbados mice. The following applies: mice with benzidine sarcoma. It is filed as in vivo. On the procedure: Study of the Anti-Cancer Activity of Anticanum on Benzidine Sarcoma. Before applying it to the silica gel, 7 ml of a solution of 2% benzidine and 0.9% sodium chloride was added until an opalescent suspension was formed (1 g silica gel for 5 ml NaCl solution). Twenty-five Barbados mice of both sexes with a weight of 18-20 g that were kept on a vivarium diet were administered benzidine and phorbol acetate immobilized on silica gel subcutaneously near the neck every three days. After two weeks, 18 animals had developed tumors of different sizes in the form of a small bump on the neck near the silica gel granulomas. Each group of animals was administered the corresponding compound parenterally at a dose of 100 mcg/kg weight twice a day for two weeks, beginning at 16 days after administration of the carcinogen.

In the case of `CC(=O)O[C@@]12CO[C@@H]1C[C@H](O)[C@@]1(C)C(=O)[C@H](O)C3=C(C)[C@@H](OC(=O)[C@H](O)[C@@H](NC(=O)OC(C)(C)C)c4ccccc4)C[C@@](O)([C@@H](OC(=O)c4ccccc4)[C@H]21)C3(C)C` [Taxotere], the “Number of live cells after incubation, %” value with HeLa cells (dose 20 mcg/ml) stood at 93%; with HeLa cells (dose 40 mcg/ml) it was 91%; in the assay on HeLa cells (dose 60 mcg/ml) it was 0.12%; in the assay on HeLa cells (dose 100 mcg/ml), 92%; in the assay on HeLa cells (dose 120 mcg/ml) it was 101%. Besides, the “Weight of Animal, Before Treatment” value in the assay on benzidine skin sarcoma is 27 ± 2 g.
